Key:
[1] = tested on: Na+ channels in superior cervical ganglion (SCG) neurons; assay: Whole-cell voltage clamp, Na+ current in SCG neurons; type: cell-based, rat; settings: for IC50: read-out: Inhibition of Na+ Current IC50
Method: (§1) Electrophysiological techniques were used to measure the effects of experimental compounds on voltage-gated Ca^2+, Na^+ and K^+ channels. […] Sodium and potassium channel currents were measured from acutely dissociated SCG neurons.
(§2) Dissociation of the neurons from the ganglia was accomplished using a 30 to 45 minute treatment in 0.25% trypsin, similar to methods outlined in Higgins, et al. [see Higgins D., et al. “Tissue culture of mammalian autonomic neurons.” In Banker G. and Goslin K. (Eds), Culturing Nerve Cells, Cambridge, Mass., MIT Press (1991)].
(§3) Ca^2+, Na^+ and K^+ channel currents in SCG neurons were measured using conventional single electrode whole-cell voltage-clamp techniques, outlined in Hamill, et al., (see Hamill O.P., et al. “Improved patch-clamp techniques for high resolution current recordings from cells and cell-free membrane patches”. Pflugers Arch. 1981;391:85-100) For Ca^2+ channel experiments, the external bathing solution contained tetraethylammonium chloride (100 mM), choline chloride (52 mM), NaCl (15 mM), HEPES (10 mM), glucose (5.6 mM), CaCl2 (2 mM), and MgCl2 (0.8 mM) pH 7.35 with KOH; with the internal pipette solution containing cesium methane sulfonate (140 mM), EGTA (10 mM), and HEPES (10 mM), supplemented with 5 mM Mg^2+ -ATP on the day of the experiment, pH 7.4 with CsOH. For Na^+ and K^+ channel experiments, the external bathing solution contained NaCl (150 mM), KCl (5 mM), MgCl2 (1.1 mM), CaCl2 (2.6 mM), Na-HEPES (10 mM), and glucose (10 mM), pH 7.4; with the internal pipette solution containing KCl (80 mM), K-gluconate (50 mM), HEPES (10 mM), and EGTA (10 mM), pH 7.4 with KOH. Experimental compounds were diluted into the external solution and applied to the soma of cells by local perfusion from large diameter (20-50 μm) glass micropipettes or from a U-tube applicator.
(§4) For Na^+ and K^+ channel currents, following the determination of the I/V relationship for each cell in control solution, currents were evoked from a holding potential between −65 and −55 mV by stepping every 10 sec to a test potential of either 0 mV for Na^+ or +50 mV for K^+ current for a duration of 35 msec. Peak inward current was measured for Na^+ and sustained current for K^+ channel currents. […] Test compounds were applied until steady-state block was achieved. Data were expressed as percent inhibition of control amplitudes for Na^+ and K^+ channel currents.

[2] = molecular target: T1, N-type Ca2+ channels in IMR-32 cells (Homo sapiens, UniProt Q00975); assay: Inhibition of N-type calcium flux in IMR-32 cells (Indo-1 fluorescence, nitrendipine present); type: cell-based; settings: for inhibition at 1 µM / inhibition at 10 µM: IMR-32; for IC50: IMR-32 cells, 5 μM nitrendipine, K+ depolarization
T1 construct: host or cells: IMR-32 cells, differentiated with dibutyryl cAMP and bromodeoxyuridine
Method in brief: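 With L-type flux blocked by 5 μM nitrendipine, N-type Ca2+ entry was read as the Indo-1 emission ratio (400/490 nm, excitation 350 nm) at 30° C after KCl depolarization.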

[3] = tested on: K+ channels in superior cervical ganglion (SCG) neurons; assay: Whole-cell voltage clamp, K+ current in SCG neurons; type: cell-based, rat; settings: for IC50: read-out: Inhibition of K+ Current IC50
Method: as §1, §2, §3, §4

[4] = molecular target: T2, N-type Ca2+ channels in superior cervical ganglion (SCG) neurons (Rattus norvegicus, UniProt Q02294); assay: Whole-cell voltage clamp, N-type Ca2+ current in SCG neurons; type: cell-based; settings: for IC50: read-out: Inhibition of N-type Ca2+ Current IC50
T2 construct: from tissue
Method: as §1, §2, §3
After obtaining a whole-cell recording, Ca^2+ channels were elicited by stepping to test potentials between −40 and +20 mV for 120 msec from the holding potential of −90 mV to determine if the amplitude of the current and clamp control were adequate for evaluation of drug effects. Ca^2+ channel currents were evoked by stepping from a holding potentials between −65 mV and −−55 mV to a test potential of +20 mV for 150 msec every 40 seconds. The amplitude of the Ca^2+ channel currents were compared before and during drug application and drug effects expressed as percent inhibition of the amplitude of control currents.

T1 sequence (Q00975 whole entry): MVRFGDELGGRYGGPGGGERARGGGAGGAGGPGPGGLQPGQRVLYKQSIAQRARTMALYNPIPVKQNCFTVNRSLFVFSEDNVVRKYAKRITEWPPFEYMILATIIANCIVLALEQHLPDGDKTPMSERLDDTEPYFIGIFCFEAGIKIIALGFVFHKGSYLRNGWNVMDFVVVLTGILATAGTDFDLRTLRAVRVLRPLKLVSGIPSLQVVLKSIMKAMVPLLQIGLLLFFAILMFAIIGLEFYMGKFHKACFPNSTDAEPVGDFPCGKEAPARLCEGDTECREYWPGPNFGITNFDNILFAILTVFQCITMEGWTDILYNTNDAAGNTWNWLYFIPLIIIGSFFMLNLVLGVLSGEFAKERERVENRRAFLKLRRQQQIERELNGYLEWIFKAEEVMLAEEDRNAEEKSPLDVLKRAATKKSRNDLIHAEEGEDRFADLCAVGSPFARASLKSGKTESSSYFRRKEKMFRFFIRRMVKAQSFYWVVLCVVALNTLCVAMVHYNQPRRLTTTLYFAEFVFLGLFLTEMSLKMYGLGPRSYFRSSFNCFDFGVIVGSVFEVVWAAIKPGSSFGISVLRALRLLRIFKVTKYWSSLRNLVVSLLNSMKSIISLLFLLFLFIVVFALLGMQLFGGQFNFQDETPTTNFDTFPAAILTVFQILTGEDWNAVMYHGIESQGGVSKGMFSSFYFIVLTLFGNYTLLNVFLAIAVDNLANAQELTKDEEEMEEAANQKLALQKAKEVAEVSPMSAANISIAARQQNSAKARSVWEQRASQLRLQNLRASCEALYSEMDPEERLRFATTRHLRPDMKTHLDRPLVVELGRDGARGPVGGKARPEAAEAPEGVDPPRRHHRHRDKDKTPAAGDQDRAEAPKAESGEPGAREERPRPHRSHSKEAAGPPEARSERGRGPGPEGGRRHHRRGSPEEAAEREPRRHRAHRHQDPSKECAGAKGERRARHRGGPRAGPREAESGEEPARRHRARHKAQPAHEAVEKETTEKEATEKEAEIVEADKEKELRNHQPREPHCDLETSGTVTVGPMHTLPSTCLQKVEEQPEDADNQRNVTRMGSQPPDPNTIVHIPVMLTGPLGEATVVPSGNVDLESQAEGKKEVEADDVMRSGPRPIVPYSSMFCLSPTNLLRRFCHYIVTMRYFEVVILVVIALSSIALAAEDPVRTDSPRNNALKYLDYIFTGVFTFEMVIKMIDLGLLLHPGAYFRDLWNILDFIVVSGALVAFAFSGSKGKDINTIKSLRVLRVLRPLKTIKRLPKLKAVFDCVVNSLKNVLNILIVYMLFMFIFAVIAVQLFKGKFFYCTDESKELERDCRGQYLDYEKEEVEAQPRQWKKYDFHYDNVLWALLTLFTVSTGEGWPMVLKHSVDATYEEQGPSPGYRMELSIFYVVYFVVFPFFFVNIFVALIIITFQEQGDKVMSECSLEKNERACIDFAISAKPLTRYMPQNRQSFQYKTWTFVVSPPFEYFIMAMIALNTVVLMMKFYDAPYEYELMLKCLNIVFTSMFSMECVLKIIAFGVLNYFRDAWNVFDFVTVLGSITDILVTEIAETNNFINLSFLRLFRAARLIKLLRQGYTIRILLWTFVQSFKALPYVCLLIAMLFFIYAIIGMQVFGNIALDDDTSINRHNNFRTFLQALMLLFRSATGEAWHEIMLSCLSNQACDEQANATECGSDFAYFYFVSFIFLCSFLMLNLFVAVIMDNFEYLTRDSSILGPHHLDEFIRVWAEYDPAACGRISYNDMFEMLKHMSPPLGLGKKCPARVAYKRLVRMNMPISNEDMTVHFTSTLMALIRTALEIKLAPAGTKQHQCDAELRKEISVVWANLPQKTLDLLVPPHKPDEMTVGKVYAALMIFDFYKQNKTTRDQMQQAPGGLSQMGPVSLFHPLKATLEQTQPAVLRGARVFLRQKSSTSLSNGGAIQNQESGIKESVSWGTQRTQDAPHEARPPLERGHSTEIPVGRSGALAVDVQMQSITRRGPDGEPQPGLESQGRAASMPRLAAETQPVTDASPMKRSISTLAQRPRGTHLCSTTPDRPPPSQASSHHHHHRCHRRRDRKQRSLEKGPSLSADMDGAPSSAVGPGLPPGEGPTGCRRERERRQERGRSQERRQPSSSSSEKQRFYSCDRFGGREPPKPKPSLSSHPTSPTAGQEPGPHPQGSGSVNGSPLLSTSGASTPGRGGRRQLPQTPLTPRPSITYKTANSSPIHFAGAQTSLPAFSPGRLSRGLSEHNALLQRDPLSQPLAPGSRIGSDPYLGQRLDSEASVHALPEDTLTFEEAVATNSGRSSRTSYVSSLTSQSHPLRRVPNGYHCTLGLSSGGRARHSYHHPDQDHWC
T1 sequence (P54289 25-956 partner limits assumed): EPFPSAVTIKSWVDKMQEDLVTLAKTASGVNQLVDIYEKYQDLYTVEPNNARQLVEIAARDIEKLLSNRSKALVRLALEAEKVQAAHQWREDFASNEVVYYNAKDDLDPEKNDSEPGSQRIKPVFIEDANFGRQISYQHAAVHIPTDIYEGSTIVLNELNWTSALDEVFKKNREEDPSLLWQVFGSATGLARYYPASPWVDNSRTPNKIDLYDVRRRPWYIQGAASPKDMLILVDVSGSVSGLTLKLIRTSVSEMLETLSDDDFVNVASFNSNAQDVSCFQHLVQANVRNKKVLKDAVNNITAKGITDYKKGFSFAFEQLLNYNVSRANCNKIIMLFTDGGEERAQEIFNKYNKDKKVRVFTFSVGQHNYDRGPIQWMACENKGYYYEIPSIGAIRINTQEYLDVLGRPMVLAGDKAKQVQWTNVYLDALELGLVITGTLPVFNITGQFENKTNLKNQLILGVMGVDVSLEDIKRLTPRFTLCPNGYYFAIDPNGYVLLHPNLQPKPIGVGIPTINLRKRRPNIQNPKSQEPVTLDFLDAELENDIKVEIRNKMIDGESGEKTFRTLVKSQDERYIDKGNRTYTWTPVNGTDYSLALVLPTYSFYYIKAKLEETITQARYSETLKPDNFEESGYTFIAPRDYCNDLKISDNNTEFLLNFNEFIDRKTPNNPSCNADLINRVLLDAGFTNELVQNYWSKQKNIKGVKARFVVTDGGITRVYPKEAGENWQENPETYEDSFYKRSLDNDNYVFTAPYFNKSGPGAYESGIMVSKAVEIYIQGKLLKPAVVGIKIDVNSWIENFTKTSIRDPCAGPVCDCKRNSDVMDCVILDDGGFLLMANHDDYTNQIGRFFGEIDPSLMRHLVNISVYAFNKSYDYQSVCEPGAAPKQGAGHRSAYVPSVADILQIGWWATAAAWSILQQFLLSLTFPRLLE
T1 sequence (P54289 957-1103 partner limits assumed): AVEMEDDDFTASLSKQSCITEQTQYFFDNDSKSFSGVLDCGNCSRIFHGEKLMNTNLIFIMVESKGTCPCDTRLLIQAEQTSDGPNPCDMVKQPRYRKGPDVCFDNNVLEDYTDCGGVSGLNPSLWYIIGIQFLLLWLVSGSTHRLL
T1 sequence (P54284 whole entry partner): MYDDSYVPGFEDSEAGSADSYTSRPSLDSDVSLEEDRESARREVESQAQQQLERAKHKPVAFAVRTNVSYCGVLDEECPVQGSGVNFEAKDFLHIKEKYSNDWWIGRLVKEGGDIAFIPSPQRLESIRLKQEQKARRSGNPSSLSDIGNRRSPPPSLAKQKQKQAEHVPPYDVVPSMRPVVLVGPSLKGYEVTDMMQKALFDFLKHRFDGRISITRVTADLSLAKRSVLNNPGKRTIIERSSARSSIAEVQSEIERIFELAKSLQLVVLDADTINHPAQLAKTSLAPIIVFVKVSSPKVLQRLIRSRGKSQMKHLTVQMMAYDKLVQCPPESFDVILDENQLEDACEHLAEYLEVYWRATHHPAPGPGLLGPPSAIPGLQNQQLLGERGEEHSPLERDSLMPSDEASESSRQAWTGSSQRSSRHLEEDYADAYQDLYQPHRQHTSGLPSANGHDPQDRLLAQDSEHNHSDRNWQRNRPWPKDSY

Row | Compound | inhibition at 1 µM [2] [%] | inhibition at 10 µM [2] [%] | IC50 [2] [nM] | inhibition at 10 µM ([4]; 10 μM) [%] | IC50 [4] [nM] | melting point [°C] | IC50 [1] [nM] | IC50 [3] [nM] | Inhibition of N-type Ca2+ Current, % Inhibition at 10 μM ([4]; 10 μM) [%] | Inhibition of Na+ Current, % Inhibition at 10 μM [1] [%] | Inhibition of K+ Current, % Inhibition at 10 μM [3] [%]
1 | CC(C)C[C@H](NC(=O)N1CCN(c2ccccc2)CC1)C(=O)N[C@@H](Cc1ccc(OCc2ccccc2)cc1)C(=O)OC(C)(C)C [Example 10, [S-(R*,R*)]-3-(4-Benzyloxy-phenyl)-2-{4-methyl-2-[(4-phenyl-piperazine-1-carbonyl)-amino]-pentanoylamino}-propionic acid tert-butyl ester] | 46 | 73 | 2100 | – | – | 67 to 69 | – | – | – | – | –
2 | COc1ccc(C[C@H](NC(=O)[C@H](CC(C)C)NC(=O)N2CCCCCC2)C(=O)OC(C)(C)C)cc1 [Example 13, [S-(R*,R*)]-2-{2-[(Azepane-1-carbonyl)-amino]-4-methyl-pentanoylamino}-3-(4-methoxy-phenyl)-propionic acid tert-butyl ester] | 40 | 86 | 1700 | – | – | 105 to 106 | – | – | – | – | –
3 | CC(C)C[C@H](NS(=O)(=O)c1ccc(C(C)C)cc1)C(=O)N[C@@H](Cc1ccc(OCc2ccccc2)cc1)C(=O)OC(C)(C)C [Example 37, [S-(R*,R*)]-3-(4-Benzyloxy-phenyl)-2(S)-[2(S)-(4-isopropyl-benzenesulfonylamino)-4-methyl-pentanoylamino]-propionic acid tert-butyl ester] | 65 | 91 | 280 | – | – | 147 to 148 | – | – | – | 5 | 9
4 | CC(C)C[C@H](NS(=O)(=O)c1ccc(Br)cc1)C(=O)N[C@@H](Cc1ccc(OCc2ccccc2)cc1)C(=O)OC(C)(C)C [Example 38, [S-(R*,R*)]-2-{2-[(4-Bromobenzene-1-sulfonyl-carbonyl)-amino]-4-methyl-pentanoylamino-3-(4-benzyloxyphenyl)-propionic acid, tert-butyl ester] | 48 | 83 | 940 | – | – | 148 to 149 | – | – | – | – | –
5 | CC(C)C[C@H](NS(=O)(=O)N1CCOCC1)C(=O)N[C@@H](Cc1ccc(OCc2ccccc2)cc1)C(=O)OC(C)(C)C [Example 42, [S-(R*,R*)]-3-(4-Benzyloxy-phenyl)-2-[4-methyl-2-(morpholine-4-sulfonylamino)-pentanoylamino]-propionic acid tert-butyl ester] | 50 | 95 | 950 | 64 | – | 54 to 57 | – | – | – | – | –
6 | CC(C)C[C@H](NC(=S)NC1CCCCC1)C(=O)N[C@@H](Cc1ccc(OCc2ccccc2)cc1)C(=O)OC(C)(C)C [Example 47, [S-(R*,R*)]-3-(4-benzyloxy-phenyl)-2-[2-(3-cyclohexyl-thioureido)-4-methyl-pentanoylamino}-propionic acid, tert-butyl ester] | 42 | 63 | 1300 | – | – | 161 to 162 | – | – | – | – | –
7 | CC(C)C[C@H](NC(=S)Nc1ccccc1Cl)C(=O)N[C@@H](Cc1ccc(OCc2ccccc2)cc1)C(=O)OC(C)(C)C [Example 48, [S-(R*,R*)]-3-(4-Benzyloxy-phenyl)-2-{2-[3-(2-chloro-phenyl)-thioureido]-4-methyl-pentanoylamino}-propionic acid tert-butyl ester] | 52 | 81 | 1200 | – | – | 66 to 67 | – | – | – | – | –

Second part, led by results:

Row | inhibition at 1 µM [2] [%] | inhibition at 10 µM [2] [%] | IC50 [2] [nM] | inhibition at 10 µM ([4]; 10 μM) [%] | IC50 [4] [nM] | melting point [°C] | IC50 [1] [nM] | IC50 [3] [nM] | Inhibition of N-type Ca2+ Current, % Inhibition at 10 μM ([4]; 10 μM) [%] | Compound | Inhibition of Na+ Current, % Inhibition at 10 μM [1] [%] | Inhibition of K+ Current, % Inhibition at 10 μM [3] [%]
8 | 60 | 94 | 820 | 70 | 620 | 53 to 57 | – | – | – | CCC(C)[C@H](NC(=O)N1CCCCCC1)C(=O)N[C@@H](Cc1ccc(OCc2ccccc2)cc1)C(=O)OC(C)(C)C (stereo partly drawn) [Example 5, (S)-2-{(S)-2-[(Azepane-1-carbonyl)-amino]-3-methyl-pentanoylamino}-3-(4-benzyloxy-phenyl)-propionic acid tert-butyl ester] | 10 | 13
9 | 45 | 99 | 1100 | – | – | 72 to 74 | – | – | – | COC(=O)[C@H](Cc1ccc(OCc2ccccc2)cc1)NC(=O)[C@H](CC(C)C)NC(=O)N1CCCCCC1 [Example 15, [S-(R*,R*)]-2-{2-[(Azepane-1-carbonyl)-amino]-4-methyl-pentanoylamino}-3-(4-benzyloxy-phenyl)-propionic acid methyl ester] | – | –
10 | 48 | 86 | 1000 | – | – | 123 to 124 | – | – | – | CC(C)C[C@H](NS(=O)(=O)N1CCCCCC1)C(=O)N[C@@H](Cc1ccc(OCc2ccccc2)cc1)C(=O)OC(C)(C)C [Example 40, [S-(R*,R*)]-2-[2-(Azepane-1-sulfonylamino)-4-methyl-pentanoylamino]-3-(4-benzyloxy-phenyl)-propionic acid tert-butyl ester] | – | –
11 | 51 | 86 | 800 | – | – | 125 to 126 | – | – | – | CC(C)C[C@H](NS(=O)(=O)N1CCCCC1)C(=O)N[C@@H](Cc1ccc(OCc2ccccc2)cc1)C(=O)OC(C)(C)C [Example 41, [S-(R*,R*)]-3-(4-Benzyloxy-phenyl)-2-[4-methyl-2-(piperidine-1-sulfonylamino)-pentanoylamino]-propionic acid tert-butyl ester] | – | –
12 | – | – | 2600 | 54 | 1190 | – | 4850 | 490 | – | CC(C)C[C@H](NC(=O)N1CCCCCC1)C(=O)N[C@@H](Cc1ccc(OCc2ccccc2)cc1)C(=O)NCCCNC1CCCCC1 [Example 184, [S-(R*,R*)]-Azepane-1-carboxylic acid {1-[2-(4-benzyloxy-phenyl)-1-(3-cyclohexylamino-propylcarbamoyl)-ethylcarbamoyl]-3-methyl-butyl}-amide] | 82 | 89
13 | – | – | 720 | 61 | 4370 | – | 42300 | 5700 | – | CC(C)CC(NC(=O)N1CCCCCC1)C(=O)NC(Cc1ccc(OCc2ccccc2)cc1)C(=O)NC(C)C(C)C (stereo not shown) [Example 191, Azepane-1-carboxylic acid {1-[2-(4-benzyloxy-phenyl)-1-(1,2-dimethyl-propylcarbamoyl)-ethylcarbamoyl]-3-methyl-butyl}-amide] | 38 | 64
14 | – | – | 920 | – | 2840 | – | – | – | 58 | CC(C)CC(NC(=O)N1CCCCCC1)C(=O)NC(Cc1ccc(OCc2ccccc2)cc1)C(=O)NC(C)C(C)C (stereo not shown) [Example 192, Azepane-1-carboxylic acid {1-[2-(4-benzyloxy-phenyl)-1-(1,2-dimethylpropylcarbamoyl)-ethylcarbamoyl]-3-methyl-butyl}-amide] | 26 | 58

Source: patent publication US6423689B1, “Peptidyl calcium channel blockers” (Warner-Lambert Company, priority 1997, dated 2002)
